ChEMBL document CHEMBL1201862, “PubChem BioAssay data set” (2004)
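Step 1: Grow cells in 96-well plates. Step 2: Expose to compound for 48 hours at 5 concentrations. Step 3: Interpolate endpoints linearly; if unreached, use highest concentration. At the GI50, growth is halved.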 Activity calls are given as the source filed them. Cut-off read from the data, not from the text of the source: active = GI50 up to about 1.1 µM and inactive = higher. Residues, ends and D or L forms follow the SMILES beside them.

Tests used:
Assay in all cases: DTP human tumour cell line panel, 48 h
COLO 205 = test system: COLO 205
OVCAR-3 = test system: OVCAR-3
SN12C = test system: SN12C
SR = test system: SR
SF-539 = test system: SF-539
U-251 = test system: U-251
LOX IMVI = test system: LOX IMVI
RPMI-8226 = test system: RPMI-8226
NCI-H23 = test system: NCI-H23
SW-620 = test system: SW-620
OVCAR-4 = test system: OVCAR-4
UACC-62 = test system: UACC-62
786-0 = test system: 786-0
Malme-3M = test system: Malme-3M
HOP-62 = test system: HOP-62
EKVX = test system: EKVX
K562 = test system: K562
HCC 2998 = test system: HCC 2998
OVCAR-8 = test system: OVCAR-8
SNB-75 = test system: SNB-75

Measured: GI50

COc1cc(C=O)cc(/C=N/N=C/c2ccccc2O)c1O
inactive: COLO 205 30.5 µM | OVCAR-3 25.5 µM | SN12C 17.6 µM | SR 19.8 µM | SF-539 4.73 µM | U-251 29.8 µM | LOX IMVI 21.7 µM | RPMI-8226 16.4 µM | NCI-H23 23.6 µM | SW-620 62.2 µM | OVCAR-4 > 100 µM | UACC-62 28.4 µM | 786-0 19.2 µM | Malme-3M 3.97 µM | HOP-62 30.7 µM

O=C1/C(=C/c2ccc(Br)s2)NC(=S)N1c1ccccc1
inactive: COLO 205 84.9 µM | OVCAR-3 62.4 µM | EKVX > 100 µM | SN12C 74.3 µM | SR > 100 µM | U-251 36.6 µM | LOX IMVI > 100 µM | RPMI-8226 22.5 µM | NCI-H23 > 100 µM | SW-620 > 100 µM | K562 56.8 µM | OVCAR-4 27 µM | UACC-62 47.2 µM | HCC 2998 > 100 µM | 786-0 40.8 µM | Malme-3M 68.1 µM | HOP-62 39.1 µM

COc1ccc(C(OCC2OC3(COC(c4ccccc4)(c4ccc(OC)cc4)c4ccc(OC)cc4)C(Oc4nc(=O)ccn43)C2O)(c2ccccc2)c2ccc(OC)cc2)cc1 (centres undefined)
inactive: COLO 205 > 100 µM | OVCAR-3 > 100 µM | EKVX > 100 µM | OVCAR-8 > 100 µM | SN12C > 100 µM | SR > 100 µM | SF-539 > 100 µM | U-251 > 100 µM | LOX IMVI > 100 µM | RPMI-8226 71.1 µM | NCI-H23 > 100 µM | SW-620 > 100 µM | K562 > 100 µM | OVCAR-4 > 100 µM | UACC-62 > 100 µM | 786-0 > 100 µM | Malme-3M > 100 µM | HOP-62 > 100 µM

COc1ccc2nc3cc([N+](=O)[O-])ccc3c(Nc3ccc(S(=O)(=O)N=C(N)N)cc3)c2c1
inactive: COLO 205 23.1 µM | OVCAR-3 16.5 µM | EKVX 15.2 µM | SN12C 48.1 µM | SR 1.32 µM | SF-539 24.1 µM | U-251 30.5 µM | LOX IMVI 28.4 µM | RPMI-8226 10.5 µM | NCI-H23 26.8 µM | SW-620 36.8 µM | K562 18.3 µM | OVCAR-4 28.2 µM | UACC-62 14.6 µM | HCC 2998 19 µM | 786-0 20.1 µM | Malme-3M 14 µM | HOP-62 27.2 µM

CC(=O)OCC1OC(n2c(-c3ccccc3)c(C(C)=O)c(-c3ccc(Cl)cc3)c(C#N)c2=S)C(OC(C)=O)C(OC(C)=O)C1OC(C)=O (centres undefined)
inactive: COLO 205 > 100 µM | OVCAR-3 > 100 µM | EKVX > 100 µM | OVCAR-8 > 100 µM | SN12C > 100 µM | SR > 100 µM | SF-539 > 100 µM | U-251 > 100 µM | SNB-75 32.3 µM | LOX IMVI > 100 µM | NCI-H23 > 100 µM | SW-620 > 100 µM | K562 > 100 µM | OVCAR-4 83.8 µM | UACC-62 > 100 µM | HCC 2998 > 100 µM | 786-0 > 100 µM | Malme-3M > 100 µM | HOP-62 > 100 µM

FC(F)(F)c1ccc2nc(Nc3ccc(Cl)c(Cl)c3)c(-c3ccccc3)nc2c1
inactive: COLO 205 61.8 µM | OVCAR-3 37.5 µM | EKVX > 100 µM | OVCAR-8 21 µM | SN12C 75.2 µM | SR 6.64 µM | SF-539 19.4 µM | U-251 7.16 µM | LOX IMVI 13.8 µM | RPMI-8226 > 100 µM | NCI-H23 > 100 µM | SW-620 33.4 µM | HCC 2998 86.7 µM | 786-0 12.1 µM | Malme-3M > 100 µM | HOP-62 > 100 µM

CN1C(=O)CC(c2cccc(C3CC(=O)N(C)C3=O)n2)C1=O (centres undefined)
inactive: COLO 205 > 100 µM | OVCAR-3 > 100 µM | EKVX > 100 µM | OVCAR-8 > 100 µM | SN12C > 100 µM | SR > 100 µM | SF-539 > 100 µM | U-251 > 100 µM | SNB-75 > 100 µM | LOX IMVI > 100 µM | NCI-H23 > 100 µM | SW-620 > 100 µM | K562 > 100 µM | OVCAR-4 > 100 µM | UACC-62 > 100 µM | HCC 2998 > 100 µM | 786-0 > 100 µM | Malme-3M > 100 µM | HOP-62 > 100 µM

O=C1C[C@@]23CCC4(CC2=CCC[C@H]3O1)OCCO4
inactive: COLO 205 > 100 µM | OVCAR-3 > 100 µM | EKVX > 100 µM | SN12C > 100 µM | SR > 100 µM | SF-539 > 100 µM | U-251 > 100 µM | LOX IMVI > 100 µM | RPMI-8226 > 100 µM | NCI-H23 > 100 µM | SW-620 > 100 µM | K562 > 100 µM | OVCAR-4 > 100 µM | UACC-62 > 100 µM | HCC 2998 > 100 µM | 786-0 > 100 µM | Malme-3M > 100 µM | HOP-62 > 100 µM

CCOC(=O)C#Cc1ccccc1
inactive: COLO 205 11.2 µM | OVCAR-3 19.1 µM | EKVX 2.28 µM | OVCAR-8 8.75 µM | SN12C 5.55 µM | SR 2.05 µM | SF-539 5.74 µM | U-251 11.1 µM | LOX IMVI 2.96 µM | RPMI-8226 12.2 µM | NCI-H23 7.26 µM | SW-620 8.2 µM | K562 2.14 µM | OVCAR-4 2.54 µM | UACC-62 6.75 µM | HCC 2998 12.2 µM | 786-0 4.84 µM | Malme-3M 13.1 µM | HOP-62 17.3 µM

C=C1C(=O)OC2CC3(C)CCCC(C)C3=CC12 (centres undefined)
inactive: COLO 205 1.3 µM | EKVX 5.3 µM | OVCAR-8 12.8 µM | SN12C 3.3 µM | SR 2.14 µM | SF-539 1.35 µM | U-251 7 µM | SNB-75 2.64 µM | LOX IMVI 1.57 µM | NCI-H23 6.04 µM | SW-620 2.16 µM | K562 2.35 µM | OVCAR-4 4.03 µM | UACC-62 4.08 µM | HCC 2998 3.79 µM | 786-0 2.79 µM | Malme-3M 3.9 µM

CCC(C)C(NC(=O)C1CCCN1)C(=O)NC(C(=O)NCC(=O)NC(CC(N)=O)C(=O)NC(CC(C)C)C(=O)NC(CC(C)C)C(=O)NC(CCCCN)C(N)=O)C(C)C (centres undefined) (H-PIVGNLLK-NH2; configuration not given here)
inactive: COLO 205 > 75 µM | OVCAR-3 > 75 µM | EKVX > 75 µM | OVCAR-8 > 75 µM | SN12C > 75 µM | SR > 75 µM | SF-539 > 75 µM | U-251 > 75 µM | LOX IMVI > 75 µM | RPMI-8226 > 75 µM | NCI-H23 > 75 µM | SW-620 > 75 µM | K562 > 75 µM | OVCAR-4 > 75 µM | UACC-62 > 75 µM | 786-0 > 75 µM | Malme-3M > 75 µM | HOP-62 > 75 µM
